In patent publication US5767296A, “Deacetoxytaxol derivatives” (Daiichi Pharmaceutical Co., Ltd., priority 1994, dated 1998):
≈ marks a conversion by molar mass, not a printed value. Where two headings read alike, the source gives them in different places.

Tests used:
P388 = assay: Antitumor effect by MTT assay, P388 tumor cells; assay type: cell-based; settings: Mus musculus, read-out: GI50 Value
Procedure: (§1) Each of three tumor cells, P388, PC-6 and PC-12, were inoculated in a 96-well microplate in amounts of 5.0×10^2 cells/150 μl/well of P388, 5.0×10^3 cells/150 μl/well of PC-6, and 1.0×10^3 cells/150 μl/well of PC-12, and after 2 hours in the case of P388 or after 24 hours in the cases of PC-6 and PC-12, test compound was added to the well in an amount of 50 μl/well in each case. Cells were cultivated for 3 days. Then, a 5 mg/ml solution of MTT [3-(4,5-dimethylthiazol-2-yl)-2,5-diphenyl-2H-tetrazolium bromide] was added to the well in an amount of 20 μl/well. After 4 hours, the culture liquid was removed, dimethylsulfoxide was added to the well in an amount of 150 μl/well, and the absorbance at 540 nm was measured. The antitumor effect was determined in terms of a concentration of the test compound required for suppressing the cell growth in the medicated group to 50% of the cell growth in the control group, i.e., a GI50 value (ng/ml).

PC-12 = assay: Antitumor effect by MTT assay, PC-12 tumor cells; assay type: cell-based; settings: Rattus norvegicus, read-out: GI50 Value
Procedure: as §1

PC-6 = assay: Antitumor effect by MTT assay, PC-6 tumor cells; assay type: cell-based; settings: Homo sapiens, read-out: GI50 Value
Procedure: as §1

[1] = test system: cancers of digestive tracts, in particular, the cancer of large intestine; settings: background art; cited from earlier work
microtubules = settings: background art; cited from earlier work
tumor = settings: background art; cited from earlier work

| Structure (SMILES) | GI50 (P388; P388, 72 h) | GI50 (PC-12; PC-12, 72 h) | GI50 (PC-6; PC-6, 72 h) | GI50 (P388; 72 h, P388, 3 days, MTT) | GI50 (PC-12; 72 h, PC-12, 3 days, MTT) | GI50 (PC-6; 72 h, PC-6, 3 days, MTT) | effectiveness on cancers of digestive tracts [1] | inhibitory activity on the disassembly of microtubules in cytokinesis (microtubules) | antitumor activity compared with taxol (tumor) |
| --- | --- | --- | --- | --- | --- | --- | --- | --- | --- |
| CCC(=O)O[C@@]12CO[C@@H]1C[C@H](O)[C@@]1(C)C(=O)C(CCN3CCOCC3)C3=C(C)[C@@H](OC(=O)C(O)C(C=C(C)C)NC(=O)OC(C)(C)C)C[C@@](O)([C@@H](OC(=O)c4ccccc4)[C@H]21)C3(C)C (single isomer, unassigned) [Example 33 Isomer B, 13-O-[3-(tert-Butoxycarbonylamino)-2-hydroxy-5-methyl-4-hexenoyl]-10-deacetoxy-4-deacetyl-10-(2-morpholinoethyl)-4-O-propionylbaccatin III] | 0.69 ng/mL (≈ 0.769 nM) | 4.16 ng/mL (≈ 4.64 nM) | 4.13 ng/mL (≈ 4.6 nM) |  |  |  |  |  |  |
| COC(=O)CCC1C(=O)[C@@]2(C)[C@H]([C@H](OC(=O)c3ccccc3)[C@]3(O)C[C@H](OC(=O)[C@H](O)[C@@H](NC(=O)OC(C)(C)C)c4ccccc4)C(C)=C1C3(C)C)[C@]1(OC(C)=O)CO[C@@H]1C[C@@H]2O (stereo partly drawn) [Example 7, 13-O-[(2R,3S)-3-(tert-Butoxycarbonylamino)-2-hydroxy-3-phenylpropionyl]-10-deacetoxy-10-(2-methoxycarbonylethyl)baccatin III] | 3.3 ng/mL (≈ 3.76 nM) | 24.4 ng/mL (≈ 27.8 nM) | 0.771 ng/mL (≈ 0.878 nM) |  |  |  |  |  |  |
| C=CCC1C(=O)[C@@]2(C)[C@H]([C@H](OC(=O)c3ccccc3)[C@]3(O)C[C@H](OC(=O)[C@H](O)[C@@H](NC(=O)OC(C)(C)C)c4ccccc4)C(C)=C1C3(C)C)[C@]1(OC(C)=O)CO[C@@H]1C[C@@H]2O (stereo partly drawn) [Example 16, 10-Allyl-13-O-[(2R,3S)-3-(tert-butoxycarbonylamino)-2-hydroxy-3-phenylpropionyl]-10-deacetoxybaccatin III] | 1.16 ng/mL (≈ 1.39 nM) | 7.87 ng/mL (≈ 9.46 nM) | 0.677 ng/mL (≈ 0.814 nM) |  |  |  |  |  |  |
| CC(=O)O[C@@]12CO[C@@H]1C[C@H](O)[C@@]1(C)C(=O)C(CC=O)C3=C(C)[C@@H](OC(=O)[C@H](O)[C@@H](NC(=O)OC(C)(C)C)c4ccccc4)C[C@@](O)([C@@H](OC(=O)c4ccccc4)[C@H]21)C3(C)C (stereo partly drawn) [Example 18, 13-O-[(2R,3S)-3-(tert-Butoxycarbonylamino)-2-hydroxy-3-phenylpropionyl]-10-deacetoxy-10-(formylmethyl)baccatin III] | 1.19 ng/mL (≈ 1.43 nM) | 12.9 ng/mL (≈ 15.5 nM) | 0.983 ng/mL (≈ 1.18 nM) |  |  |  |  |  |  |
| CC(=O)O[C@@]12CO[C@@H]1C[C@H](O)[C@@]1(C)C(=O)C(CCN3CCOCC3)C3=C(C)[C@@H](OC(=O)[C@H](O)[C@@H](NC(=O)OC(C)(C)C)c4ccccc4)C[C@@](O)([C@@H](OC(=O)c4ccccc4)[C@H]21)C3(C)C (stereo partly drawn) [Example 20, 13-O-[(2R,3S)-3-(tert-Butoxycarbonylamino)-2-hydroxy-3-phenylpropionyl]-10-deacetoxy-10-(2-morpholinoethyl)baccatin III] |  |  |  | 3.07 ng/mL (≈ 3.39 nM) | 13.5 ng/mL (≈ 14.9 nM) | 0.603 ng/mL (≈ 0.666 nM) |  |  |  |
| CCCC(=O)O[C@@]12CO[C@@H]1C[C@H](O)[C@@]1(C)C(=O)C(CCN3CCOCC3)C3=C(C)[C@@H](OC(=O)[C@H](O)[C@@H](NC(=O)OC(C)(C)C)c4ccccc4)C[C@@](O)([C@@H](OC(=O)c4ccccc4)[C@H]21)C3(C)C (stereo partly drawn) [Example 24, 4-O-Butanoyl-13-O-[(2R,3S)-3-(tert-butoxycarbonylamino)-2-hydroxy-3-phenylpropionyl]-10-deacetoxy-4-deacetyl-10-(2-morpholinoethyl)baccatin III] | 0.845 ng/mL (≈ 0.906 nM) | 4.99 ng/mL (≈ 5.35 nM) | 1.67 ng/mL (≈ 1.79 nM) |  |  |  |  |  |  |
| C=CCC1C(=O)[C@@]2(C)[C@H]([C@H](OC(=O)c3ccccc3)[C@]3(O)C[C@H](OC(=O)[C@H](O)[C@@H](NC(=O)OC(C)(C)C)c4ccco4)C(C)=C1C3(C)C)[C@]1(OC(=O)CCC)CO[C@@H]1C[C@@H]2O (stereo partly drawn) [Example 25, 10-Allyl-4-O-Butanoyl-13-O-[3-(tert-butoxycarbonylamino)-3-(2-furyl)-2-hydroxypropionyl]-10-deacetoxy-4-deacetylbaccatin III] |  |  |  | 0.226 ng/mL (≈ 0.266 nM) | 1.34 ng/mL (≈ 1.58 nM) | 0.771 ng/mL (≈ 0.907 nM) |  |  |  |
| CCC(=O)O[C@@]12CO[C@@H]1C[C@H](O)[C@@]1(C)C(=O)C(CCN3CCOCC3)C3=C(C)[C@@H](OC(=O)[C@H](O)[C@@H](NC(=O)OC(C)(C)C)c4ccccc4)C[C@@](O)([C@@H](OC(=O)c4ccccc4)[C@H]21)C3(C)C (stereo partly drawn) [Example 26, 13-O-[(2R,3S)-3-(tert-butoxycarbonylamino)-2-hydroxy-3-phenylpropionyl]-10-deacetoxy-4-deacetyl-10-(2-morpholinoethyl)-4-O-propionylbaccatin III] | 1.07 ng/mL (≈ 1.16 nM) | 5.64 ng/mL (≈ 6.14 nM) | 1.22 ng/mL (≈ 1.33 nM) |  |  |  |  |  |  |
| CCC(=O)O[C@@]12CO[C@@H]1C[C@H](O)[C@@]1(C)C(=O)C(CCN3CCOCC3)C3=C(C)[C@@H](OC(=O)[C@H](O)[C@@H](NC(=O)OC(C)(C)C)c4ccco4)C[C@@](O)([C@@H](OC(=O)c4ccccc4)[C@H]21)C3(C)C (stereo partly drawn) [Example 31, 13-O-[(2R,3S)-3-(tert-Butoxycarbonylamino)-3-(2-furyl)-2-hydroxypropionyl]-10-deacetoxy-4-deacetyl-10-(2-morpholinoethyl)-4-O-propionylbaccatin III] | 0.136 ng/mL (≈ 0.15 nM) | 1.26 ng/mL (≈ 1.39 nM) | 1.03 ng/mL (≈ 1.13 nM) |  |  |  |  |  |  |
| CCOC(=O)O[C@@]12CO[C@@H]1C[C@H](O)[C@@]1(C)C(=O)C(CCN3CCOCC3)C3=C(C)[C@@H](OC(=O)[C@H](O)[C@@H](NC(=O)OC(C)(C)C)c4ccccc4)C[C@@](O)([C@@H](OC(=O)c4ccccc4)[C@H]21)C3(C)C (stereo partly drawn) [Example 35, 13-O-[(2R,3S)-3-(tert-Butoxycarbonylamino)-2-hydroxy-3-phenylpropionyl]-10-deacetoxy-4-deacetyl4-O-ethoxycarbonyl-10-(2-morpholinoethyl)baccatin III] | 0.729 ng/mL (≈ 0.78 nM) | 2.95 ng/mL (≈ 3.15 nM) | 1.83 ng/mL (≈ 1.96 nM) |  |  |  |  |  |  |
| CC1=C2C(CCN3CCOCC3)C(=O)[C@@]3(C)[C@H]([C@H](OC(=O)c4ccccc4)[C@](O)(C[C@@H]1OC(=O)[C@H](O)[C@@H](NC(=O)OC(C)(C)C)c1ccccc1)C2(C)C)[C@]1(OC(=O)C2CC2)CO[C@@H]1C[C@@H]3O (stereo partly drawn) [Example 36, 13-O-[(2R,3S)-3-(tert-butoxycarbonylamino)-2-hydroxy-3-phenylpropionyl]-4-O-cyclopropylcarbonyl-10-deacetoxy-10-(2-morpholinoethyl)baccatin III] | 0.505 ng/mL (≈ 0.542 nM) | 1.81 ng/mL (≈ 1.94 nM) | 1.64 ng/mL (≈ 1.76 nM) |  |  |  |  |  |  |
| CC(=O)O[C@H]1C(=O)[C@@]2(C)[C@H]([C@H](OC(=O)c3ccccc3)[C@]3(O)C[C@H](OC(=O)[C@H](O)[C@@H](NC(=O)c4ccccc4)c4ccccc4)C(C)=C1C3(C)C)[C@]1(OC(C)=O)CO[C@@H]1C[C@@H]2O [Taxol] | 30.4 ng/mL (≈ 35.6 nM) | 136 ng/mL (≈ 159 nM) | 3.51 ng/mL (≈ 4.11 nM) |  |  |  | weak | inhibitory activity on the disassembly of microtubules in cytokinesis |  |
| CC(=O)O[C@@]12CO[C@@H]1C[C@H](O)[C@@]1(C)C(=O)[C@H](O)C3=C(C)[C@@H](OC(=O)[C@H](O)[C@@H](NC(=O)OC(C)(C)C)c4ccccc4)C[C@@](O)([C@@H](OC(=O)c4ccccc4)[C@H]21)C3(C)C [Taxotel, reference compound] |  |  |  | 5.3 ng/mL (≈ 6.56 nM) | 49.7 ng/mL (≈ 61.5 nM) | 1.72 ng/mL (≈ 2.13 nM) |  |  | equal to or higher than that of taxol |
